From PubChem BioAssay AID330 (DTP/NCI, 2004)
Where “and” joins values, the source holds several entries; their conditions need not be identical. Identical values can stand only once. Inconclusive results and toxic doses are left out. Rule for the calls: active = survival T/C of 150% or more; inactive = T/C below 125% in these data.

Test system: P388 leukemia ip, CD2F1 mice, survival T/C
Test: NCI In Vivo Anticancer Drug Screen. Data for tumor model P388 Leukemia (intraperitoneal) in CD2F1 (CDF1) mice
Details: endpoint: median survival time, higher = longer survival
How it was run: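 Mice carrying the transplanted tumor received test compound or vehicle. Survival was recorded in each group, and the value is the treated-group measurement divided by that of the vehicle-treated control group.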

[1] = dose: 60.0 mg/kg/injection, schedule: Q01DX005 (ip), vehicle: saline with Tween-80
[2] = dose: 120.0 mg/kg/injection, schedule: Q01DX005 (ip), vehicle: saline with Tween-80
[3] = dose: 240.0 mg/kg/injection, schedule: Q01DX005 (ip), vehicle: saline with Tween-80
[4] = dose: 50.0 mg/kg/injection, schedule: Q01DX005 (ip), vehicle: saline with Tween-80
[5] = dose: 100.0 mg/kg/injection, schedule: Q01DX005 (ip), vehicle: saline with Tween-80
[6] = dose: 200.0 mg/kg/injection, schedule: Q01DX005 (ip), vehicle: saline with Tween-80
[7] = dose: 12.5 mg/kg/injection, schedule: Q01DX009 (ip), vehicle: saline with Tween-80
[8] = dose: 25.0 mg/kg/injection, schedule: Q01DX009 (ip), vehicle: saline with Tween-80
[9] = dose: 50.0 mg/kg/injection, schedule: Q01DX009 (ip), vehicle: saline with Tween-80
[10] = dose: 50.0 mg/kg/injection, schedule: Q01DX009 (ip), vehicle: saline
[11] = dose: 100.0 mg/kg/injection, schedule: Q01DX009 (ip), vehicle: saline
[12] = dose: 200.0 mg/kg/injection, schedule: Q01DX009 (ip), vehicle: saline
[13] = dose: 10.0 mg/kg/injection, schedule: Q01DX009 (ip), vehicle: saline
[14] = dose: 50.0 mg/kg/injection, schedule: Q01DX005 (ip), vehicle: Klucel (hydroxypropylcellulose) (HPC)
[15] = dose: 100.0 mg/kg/injection, schedule: Q01DX005 (ip), vehicle: Klucel (hydroxypropylcellulose) (HPC)
[16] = dose: 200.0 mg/kg/injection, schedule: Q01DX005 (ip), vehicle: Klucel (hydroxypropylcellulose) (HPC)
[17] = dose: 50.0 mg/kg/injection, schedule: Q01DX009 (ip), vehicle: Klucel (hydroxypropylcellulose) (HPC)
[18] = dose: 100.0 mg/kg/injection, schedule: Q01DX009 (ip), vehicle: Klucel (hydroxypropylcellulose) (HPC)
[19] = dose: 200.0 mg/kg/injection, schedule: Q01DX009 (ip), vehicle: Klucel (hydroxypropylcellulose) (HPC)
[20] = dose: 50.0 mg/kg/injection, schedule: Q01DX005 (ip), vehicle: distilled water + Tween-80
[21] = dose: 100.0 mg/kg/injection, schedule: Q01DX005 (ip), vehicle: distilled water + Tween-80
[22] = dose: 200.0 mg/kg/injection, schedule: Q01DX005 (ip), vehicle: distilled water + Tween-80
[23] = dose: 100.0 mg/kg/injection, schedule: Q01DX009 (ip), vehicle: saline with Tween-80
[24] = dose: 200.0 mg/kg/injection, schedule: Q01DX009 (ip), vehicle: saline with Tween-80

Measured: T/C

O=C(/N=C1\N=Nc2nc(C(C(=O)c3cccs3)c3nc4n(c3O)/C(=N/C(=O)Nc3ccc(Cl)cc3)N=N4)c(O)n21)Nc1ccc(Cl)cc1 (stereo not drawn)
inactive: [1] 95 % of control | [2] 95 % of control | [3] 100 % of control

O=C(Nc1ccc(N=Nc2ccc(S(=O)(=O)O)cc2)cc1)c1ccc(N=Nc2c(S(=O)(=O)O)cc(O)c3c(NC(=O)c4ccccc4)cc(S(=O)(=O)O)cc23)cc1
inactive: [4] 95 % of control | [5] 93 % of control | [6] 95 % of control

N=C(N)C(Cl)(Cl)Cl
inactive: [7] 108 % of control | [8] 106 % of control | [9] 101 % of control and 106 % of control

CCCCC(CCC)(CCC)CCN
inactive: dose: 2.5 mg/kg/injection, schedule: Q01DX009 (ip), vehicle: suspension in saline 104 % of control and 105 % of control | dose: 5.0 mg/kg/injection, schedule: Q01DX009 (ip), vehicle: suspension in saline 100 % of control and 105 % of control | dose: 10.0 mg/kg/injection, schedule: Q01DX009 (ip), vehicle: suspension in saline 122 % of control and 97 % of control | dose: 20.0 mg/kg/injection, schedule: Q01DX009 (ip), vehicle: suspension in saline 106 % of control

O=C1Cc2ccccc2N1
inactive: [10] 116 % of control | [11] 107 % of control | [12] 105 % of control

O=C1C2=C(Nc3cc([N+](=O)[O-])ccc3N2)OC1c1cccc([N+](=O)[O-])c1 (stereo not drawn)
inactive: dose: 60.0 mg/kg/injection, schedule: Q01DX005 (ip), vehicle: Klucel (hydroxypropylcellulose) (HPC) 97 % of control | dose: 120.0 mg/kg/injection, schedule: Q01DX005 (ip), vehicle: Klucel (hydroxypropylcellulose) (HPC) 96 % of control | dose: 240.0 mg/kg/injection, schedule: Q01DX005 (ip), vehicle: Klucel (hydroxypropylcellulose) (HPC) 102 % of control

C1=C(/C=C2\CCCc3c(-c4ccccc4)cc(-c4ccccc4)[o+]c32)CCC/C1=C\C1=C2OC(c3ccccc3)=CC(c3ccccc3)=C2CCC1
inactive: [1] 102 % of control | [2] 93 % of control | [3] 87 % of control

Cn1cc(CCc2cc[n+](CCC[N+](C)(C)C)cc2)c2ccccc21
inactive: dose: 1.25 mg/kg/injection, schedule: Q01DX009 (ip), vehicle: saline 101 % of control | dose: 2.5 mg/kg/injection, schedule: Q01DX009 (ip), vehicle: saline 105 % of control | dose: 5.0 mg/kg/injection, schedule: Q01DX009 (ip), vehicle: saline 109 % of control | [13] 108 % of control

NC(=S)N/N=C1\C(=O)NC(=O)C1c1ccccc1 (stereo not drawn)
inactive: [4] 115 % of control | [5] 105 % of control

Cc1ccc(C2(C)C(=O)c3ccccc3C2=O)cc1
inactive: dose: 100.0 mg/kg/injection, schedule: Q04DX002 (ip), vehicle: saline 101 % of control | dose: 200.0 mg/kg/injection, schedule: Q04DX002 (ip), vehicle: saline 100 % of control | dose: 400.0 mg/kg/injection, schedule: Q04DX002 (ip), vehicle: saline 107 % of control

CN(C)CCN(Cc1ccccc1)c1ccc2ccccc2n1
inactive: dose: 6.25 mg/kg/injection, schedule: Q01DX005 (ip), vehicle: Klucel (hydroxypropylcellulose) (HPC) 97 % of control | dose: 12.5 mg/kg/injection, schedule: Q01DX005 (ip), vehicle: Klucel (hydroxypropylcellulose) (HPC) 97 % of control | dose: 25.0 mg/kg/injection, schedule: Q01DX005 (ip), vehicle: Klucel (hydroxypropylcellulose) (HPC) 99 % of control

O=Cc1cc(O)ccc1O
inactive: [11] 103 % of control and 114 % of control

N#CC1C(c2ccc(Cl)cc2)C(C(N)=O)C(=O)NC1(O)c1ccccc1 (stereo not drawn)
inactive: dose: 100.0 mg/kg/injection, schedule: Q04DX002 (ip), vehicle: Klucel (hydroxypropylcellulose) (HPC) 100 % of control | dose: 200.0 mg/kg/injection, schedule: Q04DX002 (ip), vehicle: Klucel (hydroxypropylcellulose) (HPC) 99 % of control | dose: 400.0 mg/kg/injection, schedule: Q04DX002 (ip), vehicle: Klucel (hydroxypropylcellulose) (HPC) 98 % of control

CC(=O)SCC(C)CCl (stereo not drawn)
inactive: dose: 100.0 mg/kg/injection, schedule: Q04DX003 (ip), vehicle: saline with Tween-80 100 % of control | dose: 200.0 mg/kg/injection, schedule: Q04DX003 (ip), vehicle: saline with Tween-80 109 % of control

Cc1ccccc1Nc1nc(-c2ccccc2)nc(N)c1N=O
inactive: dose: 100.0 mg/kg/injection, schedule: Q04DX003 (ip), vehicle: saline 100 % of control | dose: 200.0 mg/kg/injection, schedule: Q04DX003 (ip), vehicle: saline 98 % of control | dose: 400.0 mg/kg/injection, schedule: Q04DX003 (ip), vehicle: saline 98 % of control

Nc1ccc(N)c2c1C(=O)c1c(N)ccc(N)c1C2=O
inactive: [14] 102 % of control | [15] 100 % of control | [16] 101 % of control

CSc1cccc(NC(=O)N2CCN(C)CC2)c1
inactive: [17] 89 % of control | [18] 91 % of control | [19] 94 % of control

CC(=O)Nc1ccc(OCC(O)CNC(C)C)c(C(C)=O)c1 (stereo not drawn)
inactive: [10] 101 % of control | [11] 92 % of control | [12] 97 % of control

CC(=O)OCc1nc2ncnc(N)c2[nH]1
inactive: dose: 12.5 mg/kg/injection, schedule: Q01DX005 (ip), vehicle: distilled water + Tween-80 99 % of control | dose: 25.0 mg/kg/injection, schedule: Q01DX005 (ip), vehicle: distilled water + Tween-80 103 % of control | [20] 108 % of control | [21] 97 % of control | [22] 97 % of control

CCNC(=O)OOC(C)(C)C
inactive: [10] 102 % of control | [11] 101 % of control

COc1cc(C(C)c2cc3c(cc2OCC(=O)O)OCO3)cc(OC)c1OC (stereo not drawn)
inactive: [20] 102 % of control | [21] 97 % of control | [22] 93 % of control

NC(Cc1ccccc1Br)c1nn[nH]n1 (stereo not drawn)
inactive: [8] 97 % of control | [9] 104 % of control | [23] 114 % of control

NC(CSCCSCC(N)C(=O)O)C(=O)O (stereo not drawn)
inactive: [17] 110 % of control | [18] 98 % of control | [19] 104 % of control

COc1ccc2c(c1OC)C(=O)O[C@@H]2[C@H]1c2cc3c(cc2CCN1C)OCO3
inactive: [13] 108 % of control | dose: 20.0 mg/kg/injection, schedule: Q01DX009 (ip), vehicle: saline 114 % of control | dose: 40.0 mg/kg/injection, schedule: Q01DX009 (ip), vehicle: saline 108 % of control | dose: 80.0 mg/kg/injection, schedule: Q01DX009 (ip), vehicle: saline 99 % of control

CCOC(=O)c1cc2nc3ccccn3c(=O)c2cc1N
inactive: [7] 105 % of control and 93 % of control | [8] 87 % of control and 90 % of control | [9] 92 % of control | [23] 86 % of control and 96 % of control

Clc1ccc2c(c1)C(c1ccccc1)=NCc1nncn1-2
inactive: dose: 25.0 mg/kg/injection, schedule: Q01DX009 (ip), vehicle: Klucel (hydroxypropylcellulose) (HPC) 103 % of control | [17] 95 % of control

COC(=O)c1cn(C)c(-c2ccccc2)c1C(=O)OC
inactive: [14] 100 % of control | [15] 100 % of control | [16] 97 % of control

c1ccc(/C(=N\Nc2nc3ccccc3s2)c2ccccn2)cc1
inactive: [4] 104 % of control | [5] 109 % of control | [6] 95 % of control

COc1ccc2c(c1)CCC1C2CCC2(C)C1CCC2(O)CCOS(=O)(=O)c1ccc(C)cc1 (stereo not drawn)
inactive: [17] 97 % of control | [9] 100 % of control | [18] 97 % of control | [23] 99 % of control | [19] 94 % of control | [24] 104 % of control

c1ccc(-c2cc3ccccc3[nH]2)cc1
inactive: [9] 90 % of control | [23] 104 % of control | [24] 102 % of control
